Structures are written as SMILES.

For this experiment, the system named is Plasmodium falciparum. The experiment is described as follows: GSK_TCMDC: Inhibition of Plasmodium falciparum 3D7 in whole erythrocytes, using parasite LDH activity as an index of growth. In kind it is functional, organism-based. The conditions noted are these: Plasmodium falciparum, 3D7.
In turn, `COCCN1CCC(N(Cc2ccc(-c3ccc(C(F)(F)F)cc3)cc2)C(=O)Cn2c(CCc3cccc(F)c3F)cc(=O)c3c2CCC3)CC1` had an XC50 of 1.32 µM.
On to `CCOc1ccc(NC(=O)c2cn3nc(-c4ccc(OCC)cc4)cc3nc2C2CCNCC2)cc1`, for which the XC50 is 0.515 µM.
Then `COc1ccccc1CCNC(=O)c1cnc(N2CCN(c3ccncc3)CC2)c(Cl)c1`, with 1.15 µM.
Then `COC(=O)Nc1cc(C(F)(F)F)ccc1N1CCCC(NS(=O)(=O)c2ccc(C(C)(C)C)cc2)C1` (stereo not drawn), with 0.38 µM; and `c1ccc(CN2CCCN(c3ccc4c(c3)CCN(Cc3ccc(-c5ncc[nH]5)cc3)CC4)CC2)cc1`, with 0.762 µM; and `CCCC(CNCc1cccc(OC(F)(F)C(F)F)c1)CNc1cc(=O)c2ccccc2[nH]1` (stereo not drawn), with 0.595 µM.
Then `COc1ccc2nccc([C@@H](O)CN3CCC(NC(=O)c4ccc(Oc5ccccc5)cc4)CC3)c2c1`, with 1.38 µM; and `CC1(C)N=C(N)N=C(N)N1OCc1ccc2c(c1)OCO2`, with 0.00368 µM.
Consider `O=C(/C=C/c1ccc(Cl)c(Cl)c1)N1CCC(CN2CCC(Cc3cc4ccccc4[nH]3)CC2)CC1`, for which the XC50 was 0.63 µM.
`CC[C@H]1CN2CC[C@H]1C[C@H]2[C@H](O)c1cc(-c2ccccc2F)nc2ccc(OC)cc12` had an XC50 of 0.0789 µM.
Then `CCCCCCn1c2c(c(=N)c3c1CCC3)CCCC2`, with 0.291 µM.
On to `COC(=O)c1ccc(CC(C)NCC(O)c2cccc(C(F)(F)F)c2)cc1F` (stereo not drawn), for which the XC50 came to 1.06 µM.
`Cc1cc(N2CCOCC2)nc2ccc(NC(=O)c3cccc([N+](=O)[O-])c3)cc12` displayed an XC50 of 0.89 µM.
`COc1ccc2[nH]c(C)cc(=NN=Cc3cccc(Cl)c3)c2c1` showed an XC50 of 0.632 µM.
Then `Cc1noc(C)c1-c1ccc2c(Nc3ccccc3C(C)(C)C)c(C(=O)NC3CCCC3)cnc2c1`, with 1.04 µM; and `Oc1ccc(CCNc2nc(NCc3ccccc3-c3cccc(Cl)c3)nc(N3CCNCC3)n2)cc1`, with 1.28 µM; and `CCN(CCCN1CCCCC1)c1cc(C)nc(Nc2cc(Cl)cc(Cl)c2)n1`, with 0.286 µM.
On to `CCCC(=O)NC(c1cccs1)c1cc(Cl)c2cccnc2c1O` (stereo not drawn), for which the XC50 came to 0.848 µM.
The compound `CCCC(C)Nc1nc(C)cc(N[C@@H](Cc2ccccc2)C(=O)NCCOc2ccccc2)n1` (stereo partly drawn) came in with an XC50 of 0.699 µM.
Then `Nc1ncc(Cc2ccc3c(ccc4ccccc43)c2)c(N)n1`, with 0.758 µM; and `O=C(NCCc1ccccc1)N(Cc1ccc(-c2cccc(CN3CCNCC3)c2)cc1)C1CCN(Cc2ccccc2)CC1`, with 1.36 µM.
Compound `Cc1nc2ccc3ccc(CNc4ccc(C#N)cc4)cc3c2c(=O)[nH]1` gave an XC50 of 1.44 µM.
Then `COc1ccc(CNCc2cccc(-c3ccc(-c4nc5cc(C(F)(F)F)ccc5[nH]4)cc3)c2)cc1`, with 0.126 µM; and `Cc1cc2cc(CNCCc3ccccc3Br)ccc2nc1N`, with 0.243 µM; and `COc1ccc(CSC2CCCCC23NC(=S)NC3=S)cc1` (stereo not drawn), with 0.85 µM.
The result for `c1ccc(C(c2ccccc2)N2CCN(C(c3cccnc3)c3nnnn3C3CCCC3)CC2)cc1` (stereo not drawn) reads 1.08 µM; that for `COc1ccc2nccc(N3CCC(CCNCc4cc5c(cn4)OCCO5)CC3)c2n1`, 0.224 µM; that for `[O-][s+]1c(Cl)c(-c2ccc(Cl)cc2)c2ccc(Cl)cc21` (stereo not drawn), 0.993 µM.
As for `CN(CCON1C(=N)N=C(N)NC1(C)C)c1ccccc1`, the XC50 amounted to 0.0194 µM.
Then `Cc1ccc(NC(=O)c2cccc(CN3CCCN(CC4CCCCC4)CC3)c2)cc1F`, with 0.596 µM; and `COc1cc2ncnc(Nc3ccc4nc(Cc5ccccc5)[nH]c4c3)c2cc1OC`, with 1.48 µM; and `CCCCCCNC(=O)c1nn(CCN2CCC(N3CCCC3)CC2)cc1-c1ccc(Cl)c(Cl)c1`, with 0.733 µM.
`O=C(Nc1cccc(CN2CCCN(Cc3ccc(O)cc3)CC2)c1)c1ccc(-c2ccccc2)cc1`: the XC50 was found to be 0.342 µM.
`COc1ccc2nccc(NC(=O)CNCc3ccc(-c4ccccc4)cc3)c2c1` registered an XC50 of 0.769 µM.
In turn, `Cc1cccc2nc(-c3ccc(-c4ccc(CNCc5ccccc5)cc4)s3)[nH]c12` gave an XC50 of 0.208 µM.
In turn, `Cc1cc(Nc2cccc(Cl)c2)nc2ccc(NC(=O)c3ccc(=O)[nH]c3)cc12` registered an XC50 of 0.995 µM.
Regarding `N#CCSc1nnc(-c2ccccc2)c2ccccc12`, the XC50 is 0.723 µM.
As to `COc1ccccc1C1CCN(C2CCC(NC(=O)/C=C/c3ccc4c(c3)OC(F)(F)O4)CC2)CC1` (stereo not drawn), the XC50 turned out to be 0.836 µM.
Then `CN(Cc1ccncc1)C(Cc1ccccc1)C1CCN(Cc2ccc(O)c(Cl)c2)CC1` (stereo not drawn), with 0.747 µM; and `COc1cccc(OC)c1-c1ccccc1NC(=O)N1CCCc2cc(C)ccc21`, with 0.823 µM; and `CCOc1ccc2c(=NN=Cc3ccc(OC)c(OC)c3)cc(C)[nH]c2c1`, with 0.7 µM.
The result for `O=C(N[C@H]1CCN(CCc2ccc(O[C@H]3CCNC3)c(Cl)c2)C1)c1ccc(Cl)c(Cl)c1` reads 0.89 µM.
Then `COc1ccc(-c2cccc(NC(=O)c3ccc(C#N)cc3)c2)cc1CN1CCN(C)CC1`, with 0.99 µM; and `Cc1cc(F)ccc1N(c1nc(-c2cc(Cl)ccc2Cl)cs1)C1CCNC1` (stereo not drawn), with 1.01 µM.
`COC(=O)c1cc(/C(C)=N/Nc2nc3ccccc3[nH]2)ccc1O` came in with an XC50 of 0.676 µM.
`CCOc1cccc(C(=O)Nc2cccc(CN3CCCN(Cc4cccc(O)c4)CC3)c2)c1` registered an XC50 of 1.09 µM.
In turn, `CC(=O)Nc1cc(C(=O)Nc2cccc(-c3cccc(-c4nc5cc(C(F)(F)F)ccc5[nH]4)c3)c2)ccc1C` registered an XC50 of 0.215 µM.
Consider `c1cc(CNCCc2ccncc2)cc(-c2csc(-c3nc4ccccc4[nH]3)c2)c1`, for which the XC50 worked out at 0.258 µM.
For `Cc1cc(N)c2cc(NC(=O)c3cc4ccccc4s3)ccc2n1`, the XC50 amounted to 0.115 µM.
For the compound `CC[C@H]1CN2CC[C@@H]1C[C@H]2[C@H](O)c1cc[n+]([O-])c2ccc(OC)cc12`, the XC50 worked out at 0.748 µM.
Then `O=C(NC1CC1)c1ccc(N2CCCCN2CCc2ccccc2)c(C(F)(F)F)c1`, with 0.622 µM.
As for `CCNc1cc(C(=O)N[C@@H](Cc2ccccc2Cl)[C@H](O)CNC2CCCCC2)cc(N2CCCCS2(=O)=O)c1`, the XC50 was 0.803 µM.
Then `CCCSc1nc2c(c(=O)n1Cc1ccco1)C1(CCCCC1)Cc1ccccc1-2`, with 0.424 µM; and `COC(=O)c1cc(C(O)CNC(C)CCc2cccc(F)c2)ccc1O` (stereo not drawn), with 1.18 µM.
The result for `O=C(NCCN1CCCC1)c1cccc(Nc2nccc(Nc3ccc(Oc4ccccc4)cc3)n2)c1` reads 0.654 µM.
With `CC(C)NCC(O)Cn1c2ccc(Br)cc2c2cc(Br)ccc21` (stereo not drawn), the XC50 was 0.451 µM.
Then `c1ccc(CNc2nc(NCCN3CCCCC3)nc3ccccc23)cc1`, with 1.02 µM; and `Cc1cccc2nc(-c3ccc(-c4cccc(CN5CCCCC5)c4)s3)[nH]c12`, with 0.468 µM.
Then `COc1ccc(C(C(=O)NC2CCN(C[C@H](O)c3ccnc4ccc(OC)cc34)CC2)N2CCN(c3ccc(F)cc3)CC2)cc1` (stereo partly drawn), with 0.214 µM; and `CC(C)(C)c1ccc(-c2ccccc2CNC(=O)c2cccc(O)c2)cc1`, with 0.267 µM; and `Cc1ccccc1OCC(=O)Nc1ccc(-c2nc3cc4ccccc4cc3[nH]2)cc1`, with 0.753 µM.
`CC(C)(C)CCN1CCC(CNC(=O)c2cc(-c3cccc(C(F)(F)F)c3)cs2)C1` (stereo not drawn) returned an XC50 of 0.887 µM.
Then `COc1ccc2nccc([C@@H](O)CN3CCC(NCc4nc5ccccc5[nH]4)CC3)c2c1`, with 1.07 µM; and `Cc1cnc(C(=O)Nc2cccc(-c3cccc(-c4nc5cccc(C)c5[nH]4)c3)c2)cn1`, with 0.579 µM; and `CC(=O)Oc1c(C2C=CCCC2)c(OC(C)=O)c2ccccc2c1OC(C)=O` (stereo not drawn), with 0.605 µM.
Then `COc1ccc(Cc2c(Cl)nc3nc(N)nc(N)c3c2C)c(OC)c1OC`, with 0.725 µM; and `COc1cccc(C(=O)NCc2nnc(S)n2-c2ccc(Cl)c(Cl)c2)c1`, with 0.173 µM.
Then `O=C(O)CNCC(O)c1ccccc1` (stereo not drawn), with 0.184 µM.
The compound `O=C(NCC1CCN(Cc2ccc3c(c2)OCCO3)C1)c1cc(-c2cccc(C(F)(F)F)c2)cs1` (stereo not drawn) registered an XC50 of 0.978 µM.
The result for `C=CC(=O)Nc1ccc(Cl)cc1C(O)c1ccccc1` (stereo not drawn) reads 0.182 µM; that for `CC(=O)Nc1ccc(C(=O)Nc2cccc(-c3ccc(-c4nc5cc(C(F)(F)F)ccc5[nH]4)s3)c2)cn1`, 0.126 µM.
The result for `Cc1nc2nc(N)nc(N)c2c(C)c1Cc1ccccc1Br` reads 0.0602 µM; that for `CCOc1cc(-c2nnc3[nH]c(=O)n(C)c(=O)c3n2)ccc1OC(C)C`, 0.4 µM.
As for `FC(F)(F)c1cccc(CNCCCCCNCc2ccc(Cl)cc2)c1`, the XC50 is 1.03 µM.
`N#Cc1cccc(Nc2nccc(NCC(O)c3ccc(C(F)(F)F)cc3)n2)c1` (stereo not drawn) returned an XC50 of 0.556 µM.
Consider `NCC(NC(=O)c1ccc(-c2c[nH]c3ncccc23)s1)c1ccccc1` (stereo not drawn), for which the XC50 was 0.546 µM.
The result for `COc1cc(OC)nc(-c2cccc(NC(=O)c3ccc4c(=O)n(CCN5CCCCC5)cnc4c3)c2)n1` reads 0.744 µM; that for `Cc1cc(OCCCN2CCC(NS(=O)(=O)c3cccc(Br)c3)C2)c2ccccc2n1` (stereo not drawn), 1.21 µM; that for `COc1cc(CNCCCCCCNCc2cc(OC)c(OC)c3ccccc23)c2ccccc2c1OC`, 0.235 µM.
`CCN1CCN(c2cc(C)c3cc(NC(=O)c4cc(OC)cc(OC)c4)ccc3n2)CC1` had an XC50 of 0.156 µM.
For `CCOc1ccc(-n2nc3c(Cl)nnc(-c4ccccc4)c3c2-c2ccccc2)cc1`, the XC50 was found to be 0.226 µM.
Turning to `Cc1ccc2nc(-c3ccc(/C=C/C(=O)NC4CCN(Cc5ccccc5)CC4)cc3)[nH]c2c1C`, the XC50 came out at 0.632 µM.
The compound `CC[C@H](NC(=O)c1c(CC2CCN(CC(C)=O)CC2)c(-c2ccccc2)nc2ccccc12)c1ccccc1` showed an XC50 of 0.381 µM.
With `CN1CC=C(c2c[nH]c3ccc(Sc4ccccc4)cc23)CC1`, the XC50 came to 0.356 µM.
The result for `COc1ccc2nc(-c3cc(-c4ccc(NC(=O)C(C)C)cc4)cnc3N)[nH]c2c1` reads 0.557 µM; that for `Cc1c(C(=O)Nc2cc(Sc3ccc(F)cc3)cc([N+](=O)[O-])c2)sc2ncn(Cc3ccccc3F)c(=O)c12`, 0.798 µM; that for `CN(c1ccccc1C(=O)Nc1ccccc1Oc1ccccc1)S(=O)(=O)c1ccccc1`, 1.15 µM.
For the compound `Cc1ccccc1Nc1nc(NCCc2ccccc2)nc2ccccc12`, the XC50 was found to be 1.26 µM.

The values above are taken from ChEMBL document CHEMBL1157539, “Thousands of chemical starting points for antimalarial lead identification” (Nature, 2010).
